Tests used:
[1] = system: weed plants such as Digitaria sanguinalis, Echinochloa crus-galli, Setaria faberi, Setaria viridis, Sorghum halepense, Abutilon theophrasti, Amaranthum …; assay: Pre-emergence effect on weeds (greenhouse pot test); format: in vivo, monocotyledonous and dicotyledonous weed plants; conditions: application rate of 1 kg or less of active substance per hectare; scored visually after 3 to 4 weeks by comparison with untreated controls
Source text: Seeds or rhizome pieces of monocotyledonous and dicotyledonous weed plants are placed in sandy loam soil in plastic pots and covered with soil. The compounds according to the invention which are formulated in the form of wettable powders or emulsion concentrates are then applied to the surface of the soil cover in the form of aqueous suspensions or emulsions at an application rate of 600 to 800 l of water/ha (converted), in various dosages.
After the treatment, the pots are placed in a greenhouse and kept under good growth conditions for the weeds. After the test plants have emerged, the damage to the plants or the negative effect on the emergence is scored visually after a test period of 3 to 4 weeks by comparison with untreated controls. As shown by the test results, compounds according to the invention have good herbicidal pre-emergence activity against a broad spectrum of weed grasses and broad-leafed weeds.

[2] = system: harmful plants such as Digitaria sanguinalis, Echinochloa crus-galli, Setaria faberi, Setaria viridis, Sorghum halepense, Abutilon theophrasti, Amaranthum …; assay: Post-emergence effect on weeds (greenhouse pot test); format: in vivo, monocotyledonous and dicotyledonous weeds; conditions: application rate of 1 kg and less of active substance per hectare; treated at three-leaf stage; scored visually after about 3 to 4 weeks by comparison with untreated controls
Description: Seeds or rhizome pieces of monocotyledonous and dicotyledonous weeds are placed in sandy loam soil in plastic pots, covered with soil and grown in a greenhouse under good growth conditions. Three weeks after sowing, the test plants are treated at the three-leaf stage. The compounds according to the invention which were formulated as wettable powders or emulsion concentrates are sprayed, at various dosages, onto the green parts of the plants at an application rate of 600 to 800 l of water/ha (converted). After the test plants have remained in the greenhouse for about 3 to 4 weeks under optimum growth conditions, the effect of the preparations is scored visually by comparison with untreated controls. The agents according to the invention also have good herbicidal activity post-emergence against a broad spectrum of economically important weed grasses and broad-leafed weeds.

Row | SMILES | herbicidal activity pre-emergence [1] | herbicidal activity post-emergence [2]
1 | CC(F)c1nc(N)nc(OC2CCN(c3cccc(C(F)(F)F)c3)C2=O)n1 (stereo not drawn) [Example A37] | very good herbicidal activity | very good herbicidal activity
2 | Cc1cccc(N2CCC(Oc3nc(N)nc(C(C)F)n3)C2=O)c1 (stereo not drawn) [Example A38] | very good herbicidal activity | very good herbicidal activity
3 | Cc1cc(C)cc(N2CCC(Oc3nc(N)nc(C(C)F)n3)C2=O)c1 (stereo not drawn) [Example A39] | very good herbicidal activity | very good herbicidal activity
4 | Cc1cc(N2CCC(Oc3nc(N)nc(C(C)F)n3)C2=O)ccc1F (stereo not drawn) [Example A40] | very good herbicidal activity | very good herbicidal activity
5 | COc1cccc(N2CCC(Oc3nc(N)nc(C(C)F)n3)C2=O)c1 (stereo not drawn) [Example A41] | very good herbicidal activity | very good herbicidal activity
6 | CC(F)c1nc(N)nc(OC2CCN(c3cccc(OC(F)(F)F)c3)C2=O)n1 (stereo not drawn) [Example A42] | very good herbicidal activity | very good herbicidal activity
7 | CC(F)c1nc(N)nc(OC2CCN(c3cccc(Cl)c3)C2=O)n1 (stereo not drawn) [Example A43] | very good herbicidal activity | very good herbicidal activity
8 | CC(F)c1nc(N)nc(OC2CCN(c3cccc(F)c3)C2=O)n1 (stereo not drawn) [Example A44] | very good herbicidal activity | very good herbicidal activity
9 | CC(C)c1nc(N)nc(OC2CCN(c3ccccc3)C2=O)n1 (stereo not drawn) [Example A45] | very good herbicidal activity | very good herbicidal activity
10 | CC(C)c1nc(N)nc(OC2CCN(c3cccc(C(F)(F)F)c3)C2=O)n1 (stereo not drawn) [Example A46] | very good herbicidal activity | very good herbicidal activity
11 | Cc1cccc(N2CCC(Oc3nc(N)nc(C(C)C)n3)C2=O)c1 (stereo not drawn) [Example A47] | very good herbicidal activity | very good herbicidal activity
12 | Cc1cc(C)cc(N2CCC(Oc3nc(N)nc(C(C)C)n3)C2=O)c1 (stereo not drawn) [Example A48] | very good herbicidal activity | very good herbicidal activity
13 | Cc1cc(N2CCC(Oc3nc(N)nc(C(C)C)n3)C2=O)ccc1F (stereo not drawn) [Example A49] | very good herbicidal activity | very good herbicidal activity
14 | COc1cccc(N2CCC(Oc3nc(N)nc(C(C)C)n3)C2=O)c1 (stereo not drawn) [Example A50] | very good herbicidal activity | very good herbicidal activity
15 | CC(C)c1nc(N)nc(OC2CCN(c3cccc(OC(F)(F)F)c3)C2=O)n1 (stereo not drawn) [Example A51] | very good herbicidal activity | very good herbicidal activity
16 | CC(C)c1nc(N)nc(OC2CCN(c3cccc(Cl)c3)C2=O)n1 (stereo not drawn) [Example A52] | very good herbicidal activity | very good herbicidal activity
17 | CC(C)c1nc(N)nc(OC2CCN(c3cccc(F)c3)C2=O)n1 (stereo not drawn) [Example A53] | very good herbicidal activity | very good herbicidal activity
18 | CC(C)(F)c1nc(N)nc(OC2CCN(c3cccc(C(F)(F)F)c3)C2=O)n1 (stereo not drawn) [Example A54] | very good herbicidal activity | very good herbicidal activity
19 | Cc1cccc(N2CCC(Oc3nc(N)nc(C(C)(C)F)n3)C2=O)c1 (stereo not drawn) [Example A56] | very good herbicidal activity | very good herbicidal activity
20 | Cc1cc(C)cc(N2CCC(Oc3nc(N)nc(C(C)(C)F)n3)C2=O)c1 (stereo not drawn) [Example A57] | very good herbicidal activity | very good herbicidal activity
21 | Cc1cc(N2CCC(Oc3nc(N)nc(C(C)(C)F)n3)C2=O)ccc1F (stereo not drawn) [Example A58] | very good herbicidal activity | very good herbicidal activity

Row | SMILES | herbicidal activity pre-emergence [1] | herbicidal activity post-emergence [2]
22 | COc1cccc(N2CCC(Oc3nc(N)nc(C(C)(C)F)n3)C2=O)c1 (stereo not drawn) [Example A59] | very good herbicidal activity | very good herbicidal activity
23 | CC(C)(F)c1nc(N)nc(OC2CCN(c3cccc(OC(F)(F)F)c3)C2=O)n1 (stereo not drawn) [Example A60] | very good herbicidal activity | very good herbicidal activity
24 | CC(C)(F)c1nc(N)nc(OC2CCN(c3cccc(Cl)c3)C2=O)n1 (stereo not drawn) [Example A61] | very good herbicidal activity | very good herbicidal activity
25 | CC(C)(F)c1nc(N)nc(OC2CCN(c3cccc(F)c3)C2=O)n1 (stereo not drawn) [Example A62] | very good herbicidal activity | very good herbicidal activity
26 | CC(F)c1nc(N)nc(N(C)C2CCN(c3cccc(OC(F)(F)F)c3)C2=O)n1 (stereo not drawn) [Example A63] | very good herbicidal activity | very good herbicidal activity
27 | CC(F)c1nc(N)nc(N(C)C2CCN(c3cccc(C(F)(F)F)c3)C2=O)n1 (stereo not drawn) [Example A64] | very good herbicidal activity | very good herbicidal activity
28 | Cc1cc(C)cc(N2CCC(N(C)c3nc(N)nc(C(C)F)n3)C2=O)c1 (stereo not drawn) [Example A65] | very good herbicidal activity | very good herbicidal activity
29 | CC(F)c1nc(N)nc(N(C)C2CCN(c3cccc(Cl)c3)C2=O)n1 (stereo not drawn) [Example A66] | very good herbicidal activity | very good herbicidal activity
30 | Cc1cc(N2CCC(N(C)c3nc(N)nc(C(C)F)n3)C2=O)ccc1F (stereo not drawn) [Example A67] | very good herbicidal activity | very good herbicidal activity
31 | CC(F)c1nc(N)nc(N(C)C2CCN(c3cccc(F)c3)C2=O)n1 (stereo not drawn) [Example A69] | very good herbicidal activity | very good herbicidal activity
32 | CC(C)c1nc(N)nc(N(C)C2CCN(c3cccc(C(F)(F)F)c3)C2=O)n1 (stereo not drawn) [Example A70] | very good herbicidal activity | very good herbicidal activity
33 | Cc1cc(C)cc(N2CCC(N(C)c3nc(N)nc(C(C)C)n3)C2=O)c1 (stereo not drawn) [Example A71] | very good herbicidal activity | very good herbicidal activity
34 | CC(C)c1nc(N)nc(N(C)C2CCN(c3cccc(Cl)c3)C2=O)n1 (stereo not drawn) [Example A72] | very good herbicidal activity | very good herbicidal activity
35 | Cc1cc(N2CCC(N(C)c3nc(N)nc(C(C)C)n3)C2=O)ccc1F (stereo not drawn) [Example A73] | very good herbicidal activity | very good herbicidal activity
36 | Cc1cccc(N2CCC(N(C)c3nc(N)nc(C(C)C)n3)C2=O)c1 (stereo not drawn) [Example A74] | very good herbicidal activity | very good herbicidal activity
37 | CC(C)c1nc(N)nc(N(C)C2CCN(c3cccc(OC(F)(F)F)c3)C2=O)n1 (stereo not drawn) [Example A75] | very good herbicidal activity | very good herbicidal activity
38 | CC(C)c1nc(N)nc(N(C)C2CCN(c3cccc(F)c3)C2=O)n1 (stereo not drawn) [Example A76] | very good herbicidal activity | very good herbicidal activity
39 | COc1cccc(N2CCC(N(C)c3nc(N)nc(C(C)(C)F)n3)C2=O)c1 (stereo not drawn) [Example A77] | very good herbicidal activity | very good herbicidal activity
40 | Cc1cc(C)cc(N2CCC(N(C)c3nc(N)nc(C(C)(C)F)n3)C2=O)c1 (stereo not drawn) [Example A78] | very good herbicidal activity | very good herbicidal activity
41 | CN(c1nc(N)nc(C(C)(C)F)n1)C1CCN(c2cccc(Cl)c2)C1=O (stereo not drawn) [Example A79] | very good herbicidal activity | very good herbicidal activity
42 | CN(c1nc(N)nc(C(C)(C)F)n1)C1CCN(c2cccc(OC(F)(F)F)c2)C1=O (stereo not drawn) [Example A80] | very good herbicidal activity | very good herbicidal activity
